Data taken from patent US9403850B2, “Beta-lactamase inhibitors” (priority 2013, dated 2016).
Read-outs that look alike come from different tables or passages of the source.

Columns and labels:
[1] = test system: E. cloacae 144200 expressing Class C P99 AmpC; test: Broth microdilution MIC assay, partner ceftazidime;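 note: ceftazidime held fixed at 4 µg/mL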; type: cell-based; conditions: Enterobacter cloacae, read-out: MIC of Exemplary Compounds in presence of fixed β-lactams, Fixed CAZ, E. cl. 144200 p99 AmpC
[2] = test system: E. coli ESBL4 expressing CTX-M-15; test: Broth microdilution MIC assay, partner ceftazidime;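 note: ceftazidime held fixed at 4 µg/mL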; type: cell-based; conditions: Escherichia coli, read-out: MIC of Exemplary Compounds in presence of fixed β-lactams, Fixed CAZ, E. coli ESBL4 CTX-M-15
[3] = test system: P. aeruginosa Ps296 expressing VIM-2; test: Broth microdilution MIC assay, partner meropenem; type: cell-based; conditions: Pseudomonas aeruginosa, read-out: MIC of Exemplary Compounds in presence of fixed β-lactams, Fixed Mero, P. aerug. Ps296 VIM-2
VIM-2 = molecular target: T1, VIM-2 (Escherichia coli, UniProt Q5U7L7); test: β-Lactamase enzyme inhibition assay, VIM-2 (nitrocefin substrate); type: biochemical
T1 construct: made in house; host or cells: E. coli BL21(DE3)
Protocol: For Vim-2 metallo β-lactamase, the procedure was identical with the following exceptions, first the protein was not pH adjusted to pH 5 with 50 mM sodium acetate, second, the chromatography step was changed to a 5 ml Q sepharose anion exchange column pre-equilibrated with 50 mM Hepes pH 7.5, and elution of the protein was achieved by a linear gradient of NaCl (0-600 mM). Finally, the VIM-2 purification required a second run (3rd step) on the Q sepharose anion exchange column to achieve acceptable purity (>90%).
An equal volume of diluted enzyme stock was added, and the plates were incubated at 37° C. for 15 min. Nitrocefin was used as substrate for p99 AmpC, VIM-2 and OXA-1 and dispensed into each well at a final concentration of 100 μM. Absorbance at 486 nm was immediately monitored for 10 min using a Biotek Powerwave XS2 microplate spectrophotometer using the GEN5 softweare package (Biotek Instruments, Winooski Vt.). In an analogous fashion, imipenem was used as substrate for Kpc-2 and Cefotaxime was used for SHV-5, while changes in absorbance upon hydrolysis of the β-lactam ring were monitored at 300 nm and 260 nm respectively in UV-transparent 96-well microtiter assay plates. Maximum rates of hydrolysis were compared to those in control wells (without inhibitors), and percentages of enzyme inhibition were calculated for each concentration of inhibitor. The concentration of inhibitor needed to reduce the initial rate of hydrolysis of substrate by 50% (IC50) was calculated as the residual activity of β-lactamase at 486 nm using GraFit version 7 kinetics software package (Erithacus Software, Surrey, UK).
Using the methodology described above, examples of the current invention were evaluated for their ability to inhibit β-lactamase enzymes from all four Ambler classifications (A through D). […] NT=Not tested.

[4] = test system: K. pneumoniae 156319 expressing KPC-3; test: Broth microdilution MIC assay, partner meropenem; type: cell-based; conditions: Klebsiella pneumoniae, read-out: MIC of Exemplary Compounds in presence of fixed β-lactams, Fixed Mero, K.P. 156319 KPC-3
[5] = test system: K. pneumoniae A-1797 expressing KPC-2 and VIM-4; test: Broth microdilution MIC assay, partner meropenem; type: cell-based; conditions: Klebsiella pneumoniae, read-out: MIC of Exemplary Compounds in presence of fixed β-lactams, Fixed Mero, K.P. A-1797 KPC-2 VIM-4
[6] = test system: S. aureus MSSA-7 producing penicillinase PC-1; test: Broth microdilution MIC assay, partner piperacillin; type: cell-based; conditions: Staphylococcus aureus, read-out: MIC of Exemplary Compounds in presence of fixed β-lactams, Fixed Pip, S. aureus MSSA-7 PC-1
[7] = nitrocefin substrate 100 μM, 15 min preincubation at 37° C., read-out: IC50, Class B VIM-2

Row | SMILES | MIC [1] [µg/mL] | MIC [2] [µg/mL] | MIC [3] [µg/mL] | IC50 (VIM-2; [7]) [nM] | MIC [4] [µg/mL] | MIC [5] [µg/mL] | MIC ([6]; fixed piperacillin 4 μg/mL) [µg/mL] | IC50 (VIM-2) [nM] | MIC [6] [µg/mL]
1 | O=C(O)c1cccc2c1OB(O)[C@@H](NC(=O)C1(c3ccccc3)CC1)C2 [Example 1, (R)-2-hydroxy-3-(1-phenylcyclopropanecarboxamido)-3,4-dihydro-2H-benzo[e][1,2]oxaborinine-8-carboxylic acid] | < 4 | < 4 | 8 to 32 | 100 to 1000 | 8 to 32 | – | – | – | –
2 | O=C(O)c1cccc2c1OB(O)[C@@H](NC(=O)C(F)(F)c1ccccc1)C2 [Example 2, (R)-3-(2,2-difluoro-2-phenylacetamido)-2-hydroxy-3,4-dihydro-2H-benzo[e][1,2]oxaborinine-8-carboxylic acid] | < 4 | < 4 | 8 to 32 | 1000 to 10000 | 8 to 32 | > 32 | < 4 | – | –
3 | O=C(O)c1cccc2c1OB(O)[C@@H](NC(=O)C1(c3ccccc3)CCNCC1)C2 [Example 3, (R)-2-hydroxy-3-(4-phenylpiperidine-4-carboxamido)-3,4-dihydro-2H-benzo[e][1,2]oxaborinine-8-carboxylic acid] | < 4 | < 4 | 8 to 32 | – | < 4 | > 32 | – | 1000 to 10000 | > 32
4 | O=C(N[C@H]1Cc2cccc(C(=O)O)c2OB1O)c1csc2c1CCNC2 [Example 4, (R)-2-hydroxy-3-(4,5,6,7-tetrahydrothieno[2,3-c]pyridine-3-carboxamido)-3,4-dihydro-2H-benzo[e][1,2]oxaborinine-8-carboxylic acid] | < 4 | < 4 | > 32 | 100 to 1000 | < 4 | < 4 | < 4 | – | –
5 | O=C(N[C@H]1Cc2cccc(C(=O)O)c2OB1O)c1ccc2c(c1)CCNC2 [Example 5, (R)-3-(2-borono-2-(1,2,3,4-tetrahydroisoquinoline-6-carboxamido)ethyl)-2-hydroxybenzoic acid] | < 4 | < 4 | > 32 | 100 to 1000 | < 4 | < 4 | < 4 | – | –
6 | CN1CCc2c(C(=O)N[C@H]3Cc4cccc(C(=O)O)c4OB3O)csc2C1 [Example 6, (R)-2-hydroxy-3-(6-methyl-4,5,6,7-tetrahydrothieno[2,3-c]pyridine-3-carboxamido)-3,4-dihydro-2H-benzo[e][1,2]oxaborinine-8-carboxylic acid] | < 4 | < 4 | > 32 | 1000 to 10000 | < 4 | 8 to 32 | < 4 | – | –
7 | CN1CCc2cc(C(=O)N[C@H]3Cc4cccc(C(=O)O)c4OB3O)ccc2C1 [Example 7, (R)-2-hydroxy-3-(2-methyl-1,2,3,4-tetrahydroisoquinoline-6-carboxamido)-3,4-dihydro-2H-benzo[e][1,2]oxaborinine-8-carboxylic acid] | < 4 | < 4 | > 32 | 100 to 1000 | 8 to 32 | < 4 | < 4 | – | –
8 | O=C(O)c1cccc2c1OB(O)[C@@H](NC(=O)c1c[nH]c3ncccc13)C2 [Example 8, (R)-2-hydroxy-3-(1H-pyrrolo[2,3-b]pyridine-3-carboxamido)-3,4-dihydro-2H-benzo[e][1,2]oxaborinine-8-carboxylic acid] | < 4 | < 4 | < 4 | 1000 to 10000 | > 32 | > 32 | < 4 | – | –
9 | O=C(N[C@H]1Cc2cccc(C(=O)O)c2OB1O)c1ccc2c(c1)CNC2 [Example 9, (R)-2-hydroxy-3-(isoindoline-5-carboxamido)-3,4-dihydro-2H-benzo[e][1,2]oxaborinine-8-carboxylic acid] | < 4 | < 4 | < 4 | < 100 | < 4 | < 4 | < 4 | – | –
10 | CN1Cc2ccc(C(=O)N[C@H]3Cc4cccc(C(=O)O)c4OB3O)cc2C1 [Example 10, (R)-2-hydroxy-3-(2-methylisoindoline-5-carboxamido)-3,4-dihydro-2H-benzo[e][1,2]oxaborinine-8-carboxylic acid] | < 4 | < 4 | 8 to 32 | < 100 | < 4 | < 4 | < 4 | – | –
11 | NCCN1Cc2ccc(C(=O)N[C@H]3Cc4cccc(C(=O)O)c4OB3O)cc2C1 [Example 11, (R)-3-(2-(2-aminoethyl)isoindoline-5-carboxamido)-2-hydroxy-3,4-dihydro-2H-benzo[e][1,2]oxaborinine-8-carboxylic acid] | < 4 | < 4 | > 32 | 100 to 1000 | < 4 | < 4 | < 4 | – | –
12 | O=C(N[C@H]1Cc2cccc(C(=O)O)c2OB1O)c1ccc2c(c1)CN(Cc1cccnc1)C2 [Example 12, (R)-2-hydroxy-3-(2-(pyridin-3-ylmethyl)isoindoline-5-carboxamido)-3,4-dihydro-2H-benzo[e][1,2]oxaborinine-8-carboxylic acid] | < 4 | 8 to 32 | > 32 | 100 to 1000 | 8 to 32 | 8 to 32 | < 4 | – | –
13 | O=C(Cc1cnc2c(c1)CCCN2)N[C@H]1Cc2cccc(C(=O)O)c2OB1O [Example 13, (R)-2-hydroxy-3-(2-(5,6,7,8-tetrahydro-1,8-naphthyridin-3-yl)acetamido)-3,4-dihydro-2H-benzo[e][1,2]oxaborinine-8-carboxylic acid] | < 4 | < 4 | 8 to 32 | 1000 to 10000 | < 4 | 8 to 32 | < 4 | – | –
14 | NCc1ccc(C(=O)N[C@H]2Cc3cccc(C(=O)O)c3OB2O)cc1CN [Example 14, (R)-3-(3,4-bis(aminomethyl)benzamido)-2-hydroxy-3,4-dihydro-2H-benzo[e][1,2]oxaborinine-8-carboxylic acid] | < 4 | < 4 | < 4 | < 100 | < 4 | < 4 | < 4 | – | –
15 | NC1=Nc2cc(C(=O)N[C@H]3Cc4cccc(C(=O)O)c4OB3O)ccc2CN1 [Example 15, (R)-3-(2-amino-3,4-dihydroquinazoline-7-carboxamido)-2-hydroxy-3,4-dihydro-2H-benzo[e][1,2]oxaborinine-8-carboxylic acid] | < 4 | < 4 | < 4 | 1000 to 10000 | 8 to 32 | 8 to 32 | < 4 | – | –
16 | N=C(N)N1Cc2ccc(C(=O)N[C@H]3Cc4cccc(C(=O)O)c4OB3O)cc2C1 [Example 16, (R)-3-(2-carbamimidoylisoindoline-5-carboxamido)-2-hydroxy-3,4-dihydro-2H-benzo[e][1,2]oxaborinine-8-carboxylic acid] | < 4 | < 4 | < 4 | < 100 | < 4 | < 4 | < 4 | – | –
